Where two headings read alike, the source gives them in different places.
Assays:
Oryza sativa = assay: Phytotoxicity to rice (direct-seeded and transplanted) in paddy condition, greenhouse pot test; assay type: in vivo; conditions: visual rating after two weeks; for Phytotoxicity, Oryza sativa, Seed: direct-seeded rice, treated 5 days after sowing; for Phytotoxicity, Oryza sativa, Transplanted: transplanted rice seedlings, treated 5 days after transplanting
Source text: (§1) Pots having a surface area of 150 cm^2 were filled with a small amount of fertilizer and sterilized paddy field soil in a muddy state with a depth of 5 cm. Five (5) seeds of pre-germinated rice were directly sown on the soil surface and three (3) rice seedlings (2˜3 leaves) prepared in advance were transplanted in a depth of 2 cm in each pot. In another pot, seeds of barnyardgrass were sown and incorporated into the surface layer of soil. After sowing and transplanting of rice plant and sowing of barnyardgrass, the pots were flooded with water 3 cm deep and kept in a greenhouse. The rice plant was treated with the chemicals 5 days after sowing or transplanting, and barnyardgrass was treated with the chemicals at the pre-emergence (5 days after from sowing) and post-emergence stage (at the three-leaf stage, usually after 15 days from sowing).
(§2) Suitable herbicidal compositions were prepared by mixing and dissolving 1 part by weight of the active compound with 5 parts by weight of acetone and 1 part by weight of alkylaryl polyglycolether as an emulsifier and then diluting with water to the predetermined concentration. Application was made by dropping the herbicide solutions onto the water surface of the pots.

Echinochloa crus-galli = assay: Herbicidal activity to barnyardgrass in paddy condition, pre- and post-emergence, greenhouse pot test; assay type: in vivo; conditions: for pest or weed control at 5 g/ha / pest or weed control at 10 g/ha / pest or weed control at 20 g/ha / pest or weed control at 30 g/ha: Echinochloa crus-galli, 336 h, visual rating after two weeks
Source text: as §1, §2

[1] = 80 g/ha, 0 = none, 100 = complete death
[2] = post-emergence, three-leaf stage, read-out: Herbicidal activity, Echinochloa crus-galli, Post-emergence (3-Leaf stage)
[3] = pre-emergence (5 days after sowing), read-out: Herbicidal activity, Echinochloa crus-galli, Pre-emergence
[4] = 20 g/ha, post-emergence, three-leaf stage, read-out: Herbicidal activity, Echinochloa crus-galli, Post-emergence (3-Leaf stage)
[5] = 20 g/ha, pre-emergence (5 days after sowing), read-out: Herbicidal activity, Echinochloa crus-galli, Pre-emergence
[6] = pre-emergence (5 days after sowing), 0 = no activity, 100 = complete death, read-out: Herbicidal activity, Echinochloa crus-galli, Pre-emergence

SMILES	Phytotoxicity, Oryza sativa, Seed (Oryza sativa; 10 g/ha)	Phytotoxicity, Oryza sativa, Transplanted (Oryza sativa; 10 g/ha)	Phytotoxicity, Oryza sativa, Seed (Oryza sativa; 20 g/ha)	Phytotoxicity, Oryza sativa, Transplanted (Oryza sativa; 20 g/ha)	Phytotoxicity, Oryza sativa, Seed (Oryza sativa; 40 g/ha)	Phytotoxicity, Oryza sativa, Transplanted (Oryza sativa; 40 g/ha)	Phytotoxicity, Oryza sativa, Seed (Oryza sativa; [1])	Phytotoxicity, Oryza sativa, Transplanted (Oryza sativa; 80 g/ha)	pest or weed control at 5 g/ha (Echinochloa crus-galli; [2])	pest or weed control at 5 g/ha (Echinochloa crus-galli; [3])	pest or weed control at 10 g/ha (Echinochloa crus-galli; [2])	pest or weed control at 10 g/ha (Echinochloa crus-galli; [3])	pest or weed control at 20 g/ha (Echinochloa crus-galli; [4])	pest or weed control at 20 g/ha (Echinochloa crus-galli; [5])	pest or weed control at 30 g/ha (Echinochloa crus-galli; [2])	pest or weed control at 30 g/ha (Echinochloa crus-galli; [6])	herbicidal activity to barnyardgrass (Echinochloa crus-galli; 20 g/ha, pre- or post-emergence treatments)
COCC(=O)O[C@H](c1nccc(Br)c1S(=O)(=O)NC(=O)Nc1nc(OC)cc(OC)n1)[C@H](C)F [Com. 6]	0%	0%	0%	0%	10%	0%	20%	20%	50%	60%	70%	80%	90%	100%	100%	100%	
COc1cc(OC)nc(NC(=O)NS(=O)(=O)c2ccccc2[C@@H](O)[C@H](C)F)n1 [Standard Compound A, reference compound]	40%	20%	40%	30%	50%	40%	80%	70%	60%	60%	90%	100%	95%	100%	100%	100%	
CCOC(=O)c1cnn(C)c1S(=O)(=O)NC(=O)Nc1nc(OC)cc(OC)n1 [Standard Compound E, Pyrazosulfuron-ethyl, reference compound]	0%	0%	10%	0%	20%	0%	30%	10%	0%	0%	0%	10%	0%	20%	20%	30%	10%
COCC(=O)O[C@H](c1nccc(Cl)c1S(=O)(=O)NC(=O)Nc1nc(OC)cc(OC)n1)[C@H](C)F [Com. 5]	0%	0%	10%	0%	20%	0%	30%	20%	60%	50%	70%	80%	90%	90%	100%	100%	
COc1cc(OC)nc(NC(=O)NS(=O)(=O)c2cccnc2[C@@H](OC(=O)CCO)[C@H](C)F)n1 [Com. 3]	0%	5%	10%	10%	30%	20%	30%	20%	60%	60%	80%	90%	90%	95%	100%	100%	
